In patent US4337199A, “Antibiotic β-lactam compounds, production thereof, and their use as antimicrobial agent” (Sanraku-Ocean Co., Ltd., priority 1978, dated 1982):
≈ marks a conversion by molar mass, not a printed value.

What was measured:
Assay in all cases: minimum inhibitory concentration, agar dilution assay
Assay type in all cases: cell-based
[1] = tested on: Alcaligenes faecalis A 1; settings: A1, agar dilution, 35° C., 20 hours, read-out: minimum inhibitory concentration
Method: (§1) The antibiotic activities shown in Tables I-1 to I-8 above were determined in the following manner.
(§2) The minimum inhibitory concentrations of the compounds of formula (I-a-1) or (I-b-1) in Tables I-1 to I-7 and the known compounds in Table I-8 on the various microorganisms shown in the above tables were measured by an agar dilution assay method using a brain heart infusion agar medium "Difco" (a product of Difco Laboratories Inc.)
(§3) A sample of the test compound was dissolved in sterile distilled water and diluted to prepare a two-fold dilution series of the compound solution. In a petri plate of 9 cm diameter, 1 ml of the compound solution was added to 9 ml of molten sterile heart infusion agar medium (Difco Laboratories Inc.) at about 60° C. to prepare the compound-containing agar plate. An overnight culture of each test organism indicated in the above table which was prepared by stationary cultivation in Trypto-Soy broth (Eiken Chemi. Co., Ltd.) at 35° C. for 18 to 20 hours, was diluted with the Trypto-Soy broth to give approximately 10^8 cells/ml and the diluted inoculum was inoculated onto the compound-containing agar plates. After cultivating the plates at 35° C. for 20 hours, the growth of the organism was observed. The minimum concentration of the compound at which no growth of the microorganism was noted was determined, and defined as the minimum inhibitory concentration of the test compound.

[2] = tested on: Bacillus subtilis ATCC 6633; settings: ATCC6633, agar dilution, 35° C., 20 hours, read-out: minimum inhibitory concentration
Method: as §1, §2, §3

[3] = tested on: Citrobacter freundii GN 346; settings: GN346, agar dilution, 35° C., 20 hours, read-out: minimum inhibitory concentration
Method: as §1, §2, §3

[4] = tested on: Comamonas terrigena B-996; settings: B996, agar dilution, 35° C., 20 hours, read-out: minimum inhibitory concentration
Method: as §1, §2, §3

[5] = tested on: Enterobacter aerogenes E19; settings: Klebsiella aerogenes, E19; agar dilution, 35° C., 20 hours; read-out: minimum inhibitory concentration
Method: as §1, §2, §3

[6] = tested on: Enterobacter cloacae 45; settings: Enterobacter cloacae, 45; agar dilution, 35° C., 20 hours; read-out: minimum inhibitory concentration
Method: as §1, §2, §3

[7] = tested on: Enterobacter sp. E8; settings: SP.E8, agar dilution, 35° C., 20 hours, read-out: minimum inhibitory concentration
Method: as §1, §2, §3

[8] = tested on: Escherichia coli K-12; settings: K12, agar dilution, 35° C., 20 hours, read-out: minimum inhibitory concentration
Method: as §1, §2, §3

[9] = tested on: Escherichia coli RGN 823; settings: RGN823, agar dilution, 35° C., 20 hours, read-out: minimum inhibitory concentration
Method: as §1, §2, §3

[10] = tested on: Klebsiella pneumoniae K-13; settings: K13, agar dilution, 35° C., 20 hours, read-out: minimum inhibitory concentration
Method: as §1, §2, §3

[11] = tested on: Proteus mirabilis P6; settings: P6, agar dilution, 35° C., 20 hours, read-out: minimum inhibitory concentration
Method: as §1, §2, §3

[12] = tested on: Proteus rettgeri P7; settings: Providencia rettgeri, P7; agar dilution, 35° C., 20 hours; read-out: minimum inhibitory concentration
Method: as §1, §2, §3

[13] = tested on: Proteus sp. P22; settings: agar dilution, 35° C., 20 hours; read-out: minimum inhibitory concentration
Method: as §1, §2, §3

[14] = tested on: Proteus vulgaris GN76; settings: GN76, agar dilution, 35° C., 20 hours, read-out: minimum inhibitory concentration
Method: as §1, §2, §3

[15] = tested on: Providencia sp. P8; settings: SP.P8, agar dilution, 35° C., 20 hours, read-out: minimum inhibitory concentration
Method: as §1, §2, §3

[16] = tested on: Pseudomonas aeruginosa IFO3445; settings: IFO3445, agar dilution, 35° C., 20 hours, read-out: minimum inhibitory concentration
Method: as §1, §2, §3

[17] = tested on: Pseudomonas aeruginosa NCTC10490; settings: NCTC10490, agar dilution, 35° C., 20 hours, read-out: minimum inhibitory concentration
Method: as §1, §2, §3

[18] = tested on: Sarcina lutea; settings: Micrococcus luteus; agar dilution, 35° C., 20 hours; read-out: minimum inhibitory concentration
Method: as §1, §2, §3

[19] = tested on: Serratia marcescens S18; settings: S18, agar dilution, 35° C., 20 hours, read-out: minimum inhibitory concentration
Method: as §1, §2, §3

[20] = tested on: Serratia marcescens T55; settings: T55, agar dilution, 35° C., 20 hours, read-out: minimum inhibitory concentration
Method: as §1, §2, §3

[21] = tested on: Staphylococcus aureus FDA 209P; settings: FDA209P, agar dilution, 35° C., 20 hours, read-out: minimum inhibitory concentration
Method: as §1, §2, §3

[22] = tested on: Staphylococcus aureus Russell; settings: agar dilution, 35° C., 20 hours, read-out: minimum inhibitory concentration
Method: as §1, §2, §3

[23] = tested on: Staphylococcus aureus Smith; settings: agar dilution, 35° C., 20 hours, read-out: minimum inhibitory concentration
Method: as §1, §2, §3

[24] = tested on: Staphylococcus epidermidis; settings: agar dilution, 35° C., 20 hours, read-out: minimum inhibitory concentration
Method: as §1, §2, §3

SMILES | MIC [1] [µg/mL] | MIC [2] [µg/mL] | MIC [3] [µg/mL] | MIC [4] [µg/mL] | MIC [5] [µg/mL] | MIC [6] [µg/mL] | MIC [7] [µg/mL] | MIC [8] [µg/mL] | MIC [9] [µg/mL] | MIC [10] [µg/mL] | MIC [11] [µg/mL] | MIC [12] [µg/mL] | MIC [13] [µg/mL] | MIC [14] [µg/mL] | MIC [15] [µg/mL] | MIC [16] [µg/mL] | MIC [17] [µg/mL] | MIC [18] [µg/mL] | MIC [19] [µg/mL] | MIC [20] [µg/mL] | also measured
CC(O)[C@H]1C(=O)N2C(C(=O)O)=C(SC3CCCCC3)C[C@H]12 (stereo partly drawn) | 25 (≈ 80.3 µM) | 6.25 (≈ 20.1 µM) | > 100 | 0.05 (≈ 0.161 µM) | > 100 | > 100 | > 100 | > 100 | > 100 | > 100 | 100 (≈ 321 µM) | > 100 | > 100 | > 100 | > 100 | > 100 | 25 (≈ 80.3 µM) | 0.05 (≈ 0.161 µM) | > 100 | > 100 | MIC [21]: 0.05 µg/mL (≈ 0.161 µM); MIC [22]: 0.2 µg/mL (≈ 0.642 µM); MIC [23]: 0.39 µg/mL (≈ 1.25 µM); MIC [24]: 0.39 µg/mL (≈ 1.25 µM)
CC(O)C1C(=O)N2C(C(=O)O)=C(SC3CCCCC3)CC12 (stereo not drawn) | 1.56 (≈ 5.01 µM) | 0.013 (≈ 0.0417 µM) | 100 (≈ 321 µM) | < 0.007 | 50 (≈ 161 µM) | 50 (≈ 161 µM) | 12.5 (≈ 40.1 µM) | 12.5 (≈ 40.1 µM) | 100 (≈ 321 µM) | > 100 | 6.25 (≈ 20.1 µM) | 100 (≈ 321 µM) | > 100 | > 100 | 25 (≈ 80.3 µM) | > 100 | 50 (≈ 161 µM) | < 0.007 | > 100 | > 100 | MIC [21]: 0.013 µg/mL (≈ 0.0417 µM); MIC [22]: 0.013 µg/mL (≈ 0.0417 µM); MIC [23]: 0.05 µg/mL (≈ 0.161 µM); MIC [24]: 0.05 µg/mL (≈ 0.161 µM)
CC(C)C1C(=O)N2C(C(=O)O)=C(Sc3ccccc3)CC12 (stereo not drawn) | 6.25 (≈ 20.6 µM) | 0.1 (≈ 0.33 µM) | > 100 | 0.007 (≈ 0.0231 µM) | > 100 | > 100 | > 100 | 50 (≈ 165 µM) | 50 (≈ 165 µM) | > 100 | > 100 | 100 (≈ 330 µM) | 100 (≈ 330 µM) | > 100 | 25 (≈ 82.4 µM) | 25 (≈ 82.4 µM) | 6.25 (≈ 20.6 µM) | 0.013 (≈ 0.0429 µM) | > 100 | > 100 | MIC [21]: 0.013 µg/mL (≈ 0.0429 µM); MIC [22]: 0.025 µg/mL (≈ 0.0824 µM); MIC [23]: 0.2 µg/mL (≈ 0.659 µM); MIC [24]: 0.025 µg/mL (≈ 0.0824 µM)
CC(O)[C@H]1C(=O)N2C(C(=O)O)=C(Sc3ccccc3)C[C@H]12 (stereo partly drawn) | 25 (≈ 81.9 µM) | 6.25 (≈ 20.5 µM) | > 100 | 0.05 (≈ 0.164 µM) | > 100 | > 100 | 100 (≈ 327 µM) | 50 (≈ 164 µM) | 50 (≈ 164 µM) | > 100 | 100 (≈ 327 µM) | > 100 | > 100 | > 100 | 50 (≈ 164 µM) | 25 (≈ 81.9 µM) | 6.25 (≈ 20.5 µM) | 0.05 (≈ 0.164 µM) | > 100 | > 100 | MIC [21]: 0.05 µg/mL (≈ 0.164 µM); MIC [22]: 0.78 µg/mL (≈ 2.55 µM); MIC [23]: 1.56 µg/mL (≈ 5.11 µM); MIC [24]: 0.39 µg/mL (≈ 1.28 µM)
